Measurements taken from patent publication US10793589B2, “Resorcinarene-based amphipathic compound and use thereof” (Industry-University Cooperation Foundation Hanyang …, priority 2016, dated 2020).
Entries after “also recorded” stand apart in the source; their conditions may differ. Where two headings read alike, the source gives them in different places.

Key:
[1] = Hydrodynamic radius and size distribution of micelles by dynamic light scattering (DLS); type: physicochemical; details: compound 1.0 wt %
Protocol: A method of measuring the radius of a micelle is not particularly limited and may be any method generally known in the art. For example, the radius may be measured by a dynamic light scattering (DLS) experiment.
(§1) Specifically, critical micelle concentrations (CMCs) were measured using a fluorescence dye, diphenylhexatriene (DPH), and hydrodynamic radii (Rh) of micelles formed of each compound (1.0 wt %) were measured by a dynamic light scattering (DLS) experiment. Measured results are shown in Table 1 in comparison with values of DDM as an existing amphipathic molecule (detergent).
Meanwhile, size distributions of the micelles formed by RGAs and RMAs were measured using DLS.

[2] = biological target: T1, human β2 adrenergic receptor (β2AR) (Homo sapiens, UniProt P07550); test: Size exclusion chromatography (SEC) of β2AR receptor-detergent complex; details: 20×CMC detergent
T1 construct: made in house
T1 sequence (P07550 whole entry): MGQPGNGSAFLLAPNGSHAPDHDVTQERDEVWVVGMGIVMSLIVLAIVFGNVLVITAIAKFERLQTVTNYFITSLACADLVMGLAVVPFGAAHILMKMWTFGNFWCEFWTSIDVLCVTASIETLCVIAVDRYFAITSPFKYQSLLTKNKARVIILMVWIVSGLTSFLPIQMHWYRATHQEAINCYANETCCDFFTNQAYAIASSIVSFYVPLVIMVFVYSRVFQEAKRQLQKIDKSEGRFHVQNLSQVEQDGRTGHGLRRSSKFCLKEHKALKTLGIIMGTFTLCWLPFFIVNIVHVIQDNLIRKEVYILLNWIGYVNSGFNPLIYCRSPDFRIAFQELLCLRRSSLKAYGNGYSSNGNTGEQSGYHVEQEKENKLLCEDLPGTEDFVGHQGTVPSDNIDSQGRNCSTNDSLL
Protocol: FIG. 11 illustrates a result of evaluating the size characteristic of a (32AR protein-ligand binding complex formed of RGA-C11, RGA-C13, or DDM via a size exclusion chromatography (SEC) test.
In addition, a size exclusion chromatography (SEC) test was conducted. Specifically, β2AR purified with 0.1% DDM was loaded on a M1 Flag column in the presence of 2 mM CaCl2, and the column was washed with a DDM, RGA-C11 or RGA-C13 detergent buffer (20 mM HEPES pH 7.5, 100 mM NaCl, 0.2% individual amphipathic compound). The receptor was eluted with 20×CMC DDM, RGA-C11, or RGA-C13 with 5 mM EDTA and 0.2 mg/ml free Flag peptide. The eluate was further added to a Superdex-200 10/300 GL column (GE Healthcare) at 0.5 ml/min, and UV absorbance at 280 nm was recorded. The running buffer contained 20 mM HEPES pH 7.5, 100 mM NaCl, 20×CMC individual detergent (DDM, RGA-C11 and RGA-C13).

[3] = biological target: T1, human β2 adrenergic receptor (β2AR); test: β2AR stability, [3H]-dihydroalprenolol (DHA) ligand binding assay; type: biochemical
Protocol: FIGS. 10A and 10B illustrate a result of measuring the effect of RGAs on the stability of β2AR after (a) 0 hour and (b) over time. Protein-ligand binding characteristics were measured via ligand binding assay using [^3H]-dihydroalprenolol (DHA), and the measurement was carried out by sampling a protein sample at regular intervals during 2 days of storage at room temperature.
FIGS. 12A and 12B illustrate a result of measuring the effect of RMAs on the stability of β2AR after (a) 0 hour and (b) over time. Protein-ligand binding characteristics were measured via ligand binding assay using [^3H]-dihydroalprenolol (DHA), and the measurement was carried out by sampling a protein sample at regular intervals during 2 days of storage at room temperature.
An experiment was carried out to measure the structural stability of a human (32 adrenergic receptor (β2AR) and a G protein-coupled receptor (GPCR) caused by RGAs and RMAs. That is, a receptor purified with DDM was diluted with a buffer solution containing only each RGA and RMA without cholesteryl hemisuccinate (CHS) or a buffer solution containing CHS and DDM. The final concentration of the compound was CMC+0.2 wt %, and the ligand binding characteristic of the receptor was measured using [^3H]-dihydroalprenolol ([^3H]-DHA) binding.
Specifically, radioligand binding assay was carried out using the following method. β2AR was purified using 0.1% DDM according to the method described in a paper (Science, 2007, 318, 1266-1273.) written by D. M. Rosenbaum et al. and finally concentrated to about 10 mg/ml (about 200 μM). The β2AR purified with DDM was used to prepare a master binding mixture containing 10 nM [^3H]-dihydroalprenolol (DHA) supplemented with 0.5 mg/ml BSA in a 0.2% amphipathic compound (DDM, RGAs or RMAs). The receptor purified with DDM, RGAs or RMAs was incubated with 10 nM [^3H]-DHA at room temperature for 30 minutes. The mixture was loaded into a G-50 column, the flow-through was collected with 1 ml of a binding buffer (20 mM HEPES pH 7.5, 100 mM NaCl, supplemented with 0.5 mg/ml BSA and 20×CMC individual amphipathic compound, and the G-50 column was further filled with 15 ml of a scintillation fluid. Receptor-bound [^3H]-DHA was measured with a scintillation counter (Beckman). The binding capacity of [^3H]-DHA was measured and shown in a column graph. Each experiment was performed in triplicate.

[4] = Critical micelle concentration by fluorescence dye diphenylhexatriene (DPH); type: physicochemical
Protocol: A method of measuring the CMC is not particularly limited and may be any method generally known in the art. For example, the CMC may be measured according to a fluorescence staining method using diphenylhexatriene (DPH).
as §1

[5] = biological target: T2, Salmonella typhimurium melibiose permease (MelB) (Salmonella typhimurium, UniProt P30878); test: MelB extraction and solubility after 90 min incubation, SDS-PAGE and western blotting; type: biochemical; details: 1.5 wt %
T2 construct: made in house; host or cells: E. coli DW2 (melB and lacZY deleted), plasmid pK95AHB/WT MelBSt/CH10
T2 sequence (P30878 whole entry): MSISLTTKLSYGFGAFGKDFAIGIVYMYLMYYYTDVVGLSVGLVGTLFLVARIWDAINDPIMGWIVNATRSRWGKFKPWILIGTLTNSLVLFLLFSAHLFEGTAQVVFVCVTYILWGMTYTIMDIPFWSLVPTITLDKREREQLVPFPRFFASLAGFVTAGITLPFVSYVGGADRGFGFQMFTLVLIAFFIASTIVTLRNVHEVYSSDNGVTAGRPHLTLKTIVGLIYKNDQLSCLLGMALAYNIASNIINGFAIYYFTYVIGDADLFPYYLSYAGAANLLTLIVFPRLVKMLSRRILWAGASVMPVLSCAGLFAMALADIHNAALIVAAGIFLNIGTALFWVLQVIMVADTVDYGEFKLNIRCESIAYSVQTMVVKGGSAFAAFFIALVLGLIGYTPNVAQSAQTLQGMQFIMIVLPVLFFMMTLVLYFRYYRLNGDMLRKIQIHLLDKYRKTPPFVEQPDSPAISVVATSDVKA
Protocol: FIGS. 9A and 9B illustrate a result of measuring the amount of a MelB protein dissolved in an aqueous solution after a MelB protein was extracted at four temperatures (0, 45, 55, and 65) using RGAs or DDM at a concentration of 1.5 wt % and then incubated at the same temperatures for 90 minutes:
RGAs were selected, and an experiment was carried out to measure the structural stability of a Salmonella typhimurium melibiose permease (MelB) caused by RGAs. A MelB protein was extracted from a membrane using RGAs or DDM, and the amount and structure of the protein thus extracted was then analyzed by performing SDS-PAGE and western blotting. In this case, the concentration of the used amphipathic compound was 1.5 wt %. The protein was extracted at four temperatures (0, 45, 55, and 65° C.) and then incubated at the same temperatures for 90 minutes. Subsequently, two kinds of performance of the compound, that is, protein extraction efficiency and protein stability were evaluated at the same time by measuring the amount of a protein which remained dissolved in an aqueous solution. The amount of a protein which was extracted and stabilized by an individual amphipathic molecule was expressed as a relative value (%) with respect to the amount of the entire protein included in a membrane sample not treated with an amphipathic molecule.
Specifically, a C-terminal 10-His-tagged Salmonella typhimurium melibiose permease (MelBSt) was expressed in E. coli DW2 cells (melB and lacZY) using plasmid pK95AHB/WT MelBSt/CH10. Cells were grown and membranes were prepared according to the method described in a paper (Nat. Commun. 2014, 5, 3009) written by A. S. Ethayathulla et al. A protein assay was carried out with a Micro BCA kit (Thermo Scientific, Rockford, Ill.). RGAs and DDM were evaluated to measure the stability of MelBSt according to the protocol described in a paper (Nat. Methods 2010, 7, 1003-1008) written by P. S. Chae et al. The membrane sample (final protein concentration of 10 mg/mL) containing MelBSt was incubated in a solubilization buffer containing 1.5% (w/v) DDM or RGAs (20 mM sodium phosphate, pH 7.5, 200 mM NaCl, 10% glycerol, and 20 mM melibiose) at four temperatures (0, 45, 55, and 65° C.) for 90 minutes. An insoluble material was removed by ultracentrifugation at 355,590 g at 4° C. for 45 minutes using a Beckman Optima™ MAX ultracentrifuge equipped with a TLA-100 rotor. A dissolved portion was separated by SDS-16% PAGE, and immunoblotting was then performed using a Penta-His-HRP antibody (Qiagen, Germantown, Md.). A membrane fraction containing 20 μg of protein without treatment was used to illustrate the overall MelB, and the treated samples were loaded into each well in equal volume. MelBSt was measured using the SuperSignal West Pico Chemiluminescent substrate by ImageQuant LAS 4000 Biomolecular Imager (GE Healthcare Life Sciences).

[6] = test system: leucine transporter (LeuT); test: LeuT structural stability, [3H]-Leu binding by scintillation proximity assay (SPA); type: biochemical, Aquifex aeolicus; details: CMC+0.04 wt % versus CMC+0.2 wt %
Protocol: FIGS. 7A and 7B are a set of graphs illustrating a result of measuring the structural stability of a leucine transporter (LeuT) solubilized in RGAs or DDM evaluated at CMC+0.04 wt % (a) or CMC+0.2 wt % (b). Protein stability was determined by measuring the ability of the transporter to bind a radiolabeled ligand ([3H]-Leu) via scintillation proximity assay (SPA). The substrate binding ability of LeuT was measured at regular intervals during 10 days of incubation of the protein at room temperature in the presence of individual amphipathic compounds.
FIGS. 8A and 8B are a set of graphs illustrating a result of measuring the structural stability of a leucine transporter (LeuT) solubilized in RMAs or DDM evaluated at CMC+0.04 wt % (a) or CMC+0.2 wt % (b). Protein stability was determined by measuring the ability of the transporter to bind a radiolabeled ligand ([3H]-Leu) via scintillation proximity assay (SPA). The substrate binding ability of LeuT was measured at regular intervals during 10 days of incubation of the protein at room temperature in the presence of individual amphipathic compounds.
An experiment was carried out to measure the structural stability of a leucine transporter (LeuT) caused by RGAs and RMAs. The concentrations of individual amphipathic compounds were (a) CMC+0.04 wt % or (b) CMC+0.2 wt %, and the substrate binding characteristic of LeuT was measured by scintillation proximity assay (SPA) using [^3H]-Leu. […]
Specifically, wild type LeuT derived from Aquifex aeolicus which is a thermophilic bacterium was purified according to the method described in the paper (Nature 1998, 392, 353-358) written by G. Deckert et al. LeuT was expressed in E. coli C41 (DE3) transformed with pET16b encoding a C-terminal 8×His-tagged transporter (an expression plasmid was provided by Dr. E. Gouaux (Vollum Institute, Portland, Oreg., USA)). […] The protein samples were stored at room temperature for 10 days and centrifuged at designated time points, and protein characteristics were determined by measuring the binding capacity of [^3H]-Leucine using SPA. […]

SMILES | Rh (nm), hydrodynamic radius of micelles [1] | size of receptor-detergent complex [2] | maintaining the ligand binding characteristic of the receptor compared to DDM ([3]; 0 hour, CMC+0.2 wt %, [3H]-DHA) | ability to maintain the ligand binding of the receptor over time compared to DDM ([3]; 2 days at room temperature, early stage (0 to 12 h)) | CMC (wt %) ([4]; DPH fluorescence) | MelB protein extraction efficiency and solubility ([5]; 55° C.) | CMC [4] | CMC ([4]; DPH fluorescence) | LeuT stabilization as concentration of compound increased [6] | MelB protein extraction/solubilization efficiency ([5]; 0° C.) | MelB protein extraction efficiency and solubility ([5]; 45° C.) | MelB protein extraction ([5]; 65° C.)
CCCCCCCCCC[C@H]1c2cc(c(OCCO[C@@H]3OC(CO)[C@@H](O)[C@H](O)C3O)cc2OCCO[C@@H]2OC(CO)[C@@H](O)[C@H](O)C2O)[C@H](CCCCCCCCCC)c2cc(c(OCCO[C@@H]3OC(CO)[C@@H](O)[C@H](O)C3O)cc2OCCO[C@@H]2OC(CO)[C@@H](O)[C@H](O)C2O)[C@@H](CCCCCCCCCC)c2cc(c(OCCO[C@@H]3OC(CO)[C@@H](O)[C@H](O)C3O)cc2OCCO[C@@H]2OC(CO)[C@@H](O)[C@H](O)C2O)[C@@H](CCCCCCCCCC)c2cc1c(OCCO[C@@H]1OC(CO)[C@@H](O)[C@H](O)C1O)cc2OCCO[C@@H]1OC(CO)[C@@H](O)[C@H](O)C1O (some centres unmarked) [RGA-C11] | 6.8 ± 0.2 nm | significantly smaller than that formed of DDM | superior to DDM | superior ability to maintain the ligand binding of the receptor compared to DDM | ~0.0081 wt % | maintained MelB solubility better than DDM; also recorded: higher protein extraction efficiency than DDM |  |  |  |  |  | 
CCCCCCCCCCCCO[C@@H]1O[C@H](CO)[C@@H](O[C@H]2O[C@H](CO)[C@@H](O)[C@H](O)[C@H]2O)[C@H](O)[C@H]1O [DDM, n-dodecyl-β-D-maltopyranoside, reference compound] | 3.4 ± 0.0 nm |  |  |  | 0.0087 wt % |  | 0.17 mM | 0.17 mM | constant structural collapse of the solubilized transporter | high MelB protein extraction efficiency | high MelB protein extraction efficiency | hardly extracted
